Measurements taken from patent US12129312B2, “Peptide compound, application thereof and composition containing same” (priority 2017, dated 2024).
Square brackets hold non-standard residues; d marks the D form. Peptide text beside a SMILES is read from it. * marks the point of attachment. Hydrocinnamoyl = O=C(CCc1ccccc1)*; Tic = O=C(O)[C@@H]1Cc2ccccc2CN1; NMeL = CN[C@@H](CC(C)C)C(=O)O

Assay: Plasma stability, mouse plasma
Type: in vitro ADME
Details: 37° C., 0-4 hours, LC-MS/MS, "Very long" = no significant degradation found in the test (4 hours)
Procedure: 1. Preparation of 50 mM Phosphate Buffer (50 mM Sodium Phosphate and 70 mM NaCl):
5.750 g of Na2HPO4, 1.141 g of NaH2PO4 and 4.095 g of NaCl (Shanghai Titan) were weighed and dissolved in 1000 mL of ultrapure water and the pH was adjusted to 7.4. The prepared phosphate buffer was stored in the refrigerator at 4° C., valid for one week.
2. Preparation of Compound Stock Solution:
1) 5 mg/mL test compound: 5 mg of compound was weighed and dissolved in 1 mL of DMSO.
2) 20 mM control: 2.728 mg of nococaine was dissolved in 0.5 mL of DMSO. 3.878 mg of fenfluramide was dissolved in 0.5 mL of DMSO (Amresco).
3. Preparation of Experimental Plasma:
The frozen plasma (human: Shanghai ChemPartner, Rat, Mouse: Shanghai Xipuer-Beikai, Dog, Monkey: Suzhou Xishan Zhongke) was taken out from the −80° C. refrigerator, immediately placed in a 37° C. water bath, and thawn with gentle shaking. The thawed plasma was poured into a centrifuge tube, and centrifuged at 3000 rpm for 8 minutes. The supernatant was collected for the experiment. The pH of the plasma was measured with a pH meter (METTLER TOLEDO), and only the plasma with a pH between 7.4 and 8 was used for the experiment. The plasma was placed on an ice bath for later use.
4. Preparation of the Dosing Solution:
1) 125 μg/mL test compound solution: 5 μL of 5 mg/mL test compound (see step 2) was added to 195 μL DMSO; 500 μM control solution: 20 mM control stock solution (see step 2) was added to 195 μL DMSO.
2) 0.5% BSA phosphate buffer solution: 0.05 g of BSA was added to 10 mL of phosphate buffer (see step 1).
3) 5 μg/mL test compound dosing solution: 40 μL of 125 μg/mL test compound solution was added to 960 μL of 0.5% BSA phosphate buffer solution, shaken and mixed evenly, and the dosing solution was placed in a 37° C. water bath and preheated for 5 minutes.
20 μM control dosing solution: 40 μL of 500 μM control solution was added to 960 μL of 0.5% BSA phosphate buffer solution, shaken and mixed evenly, and the dosing solution was placed in a 37° C. water bath and preheated for 5 minutes.
5. 10 μL of 5 μg/mL test compound and 20 μM control solution were added to the wells of the 96-well plate set at different time points (0 minute, 1 hour, 2 hours and 4 hours). The number of duplicate samples was 3.
6. 500 μL of ACN (IS) containing 5% FA was added to the wells set at 0 minute. 90 μL of plasma was then added thereto, mixed evenly, sealed with the film and stored at 4° C. (the number of duplicates was 3).
7. 90 μL of plasma was added to the wells set at 1 hour, 2 hours and 4 hours (the number of replicates was 3), followed by timing (the final concentration of the test compound was 500 ng/mL, and that of the control was 2 μM).
9. All samples (0 minutes, 1 hour, 2 hours, and 4 hours) at different time points on the 96-well plate were placed on a shaker (IKA, MTS 2/4) and shaken at 600 rpm for 60 minutes. The samples were then centrifuged for 15 minutes on a centrifuge machine (Thermo Multifuge×3R) at 5594×g.
10. 150 μL of the supernatant was taken out from the centrifuged sample and sent to LC-MS/MS for analysis (conventional peptide LC-MS/MS analysis).

Structure (SMILES)	half-life at 500 ng/mL (read-out: Mouse plasma (T1/2 (h)) (converted))	Mouse plasma (T1/2 (h)) (500 ng/mL)
CC(C)C[C@H](NC(=O)[C@H](Cc1ccccc1)NC(=O)[C@H](N)Cc1ccc(O)cc1)C(=O)N1CCC[C@H]1C(=O)N[C@H](CO)C(=O)N[C@@H](CCC(N)=O)C(=O)N[C@@H](Cc1ccccc1)C(=O)N[C@H](C)C(=O)N1Cc2ccccc2C[C@H]1C(=O)N[C@@H](CO)C(=O)O [YW-3, (D-Tyr)-Phe-Leu-Pro-(D-Ser)-Gln-Phe-(D-Ala)-Tic-Ser, reference compound] (H-[dY]FLP[dS]QF[dA][Tic]S-OH)	35.4 h	
CC(C)C[C@@H](C(=O)N1CCC[C@H]1C(=O)N[C@H](CO)C(=O)N[C@@H](CCC(N)=O)C(=O)N[C@@H](Cc1ccccc1)C(=O)N[C@H](C)C(=O)N1Cc2ccccc2C[C@H]1C(=O)N[C@@H](CO)C(=O)O)N(C)C(=O)[C@H](Cc1ccccc1)NC(=O)[C@@H](Cc1ccc(O)cc1)NC(=O)CCc1ccccc1 [YW-111, 3-phenylpropanoyl-(D-Tyr)-Phe-(NMe-Leu)-Pro-(D-Ser)-Gln-Phe-(D-Ala)-Tic-Ser-OH] (Hydrocinnamoyl-[dY]F[NMeL]P[dS]QF[dA][Tic]S-OH)		Very long
